Source: US20240262822A1, “WDR5 INHIBITORS AND MODULATORS” (Vanderbilt University, priority 2021, published 2024)

Tests used:
[1] = tested on: MV4:11 human cancer cell lines; test: Cellular viability / anti-proliferative activity, CellTiter-Glo, 5 day protocol; type: cell-based; conditions: Homo sapiens, MV4-11, 120 h, MV4:11 cells, 5 day incubation, read-out: GI50 for representative compounds on cellular proliferation of MV4:11 human cancer cell lines
Experimental: Anti-proliferative activity using MLL-harboring cell lines. MV-4-11 and K562 cells are grown in IMDM media supplemented with 10% FBS and 1% penicillin/streptomycin, Molm-13 cells are cultured in RPMI-1640 media supplemented with 10% FBS and 1% penicillin/streptomycin. Viability assays are performed by dispensing 200 cells at 7200 cells/mL into each well of an opaque 384-well plate and adding compounds at the indicated concentrations in a final volume of 32 μL and a final concentration of DMSO of 0.3% for all samples. A certain range of compound concentrations is made through a series of 2-fold dilutions starting 30 μM at the highest, total 22 dilutions. After a set incubation period, 5 day protocol, the viability of cells in each well is assessed using the CellTiter-Glo assay (Promega), read on a 96 Microplane Luminometer (Cytation 3, BioTek). Serial dilutions of each cell type are performed in all assays to generate standard curves and the final densities of cells are determined within the dynamic range of the instrument. GI50 values are calculated based on XLfit software (IDBS, Guildford, UK) with Sigmoidal Dose-Response Model. Each compound is tested in minimum of two replicates. Data are expressed as mean.

WDR5 = molecular target: T1, WDR5 (Homo sapiens, UniProt P61964); test: Time Resolved-Fluorescence Energy Transfer (TR-FRET) competition assay, displacement of 10mer-Thr-FAM probe from His-tagged WDR5; type: binding; conditions: WDR5-His tag 2 nM, 10mer-Thr-FAM 150 nM, 60 minutes at room temperature; read-out: Ki for Exemplified Compounds for Inhibition of WDR5 by TR-FRET assay
T1 construct: WDR5-His Tag (A23, residues 24-334) is expressed and purified in our lab; made in house
Summary of the method: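 Competitive TR-FRET using 2 nM His-tagged WDR5 (residues 24-334), 1 nM Tb-anti-His antibody and 150 nM 10mer-Thr-FAM probe; compounds in a 10-point, 5-fold series from 5 μM, ≤1% DMSO. Incubated 60 min at room temperature in PBS with 300 mM NaCl, 0.5 mM TCEP, 0.1% CHAPS, pH 7.2; 520/495 nm emission gave IC50, converted to Ki by the Wang equation.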

Compound	GI50 [1] [nM]	Ki (WDR5) [nM]
CCc1cc2c(N3CCc4c(cc(Cn5ccnc5)cc4-c4cn(C)nc4C(F)(F)F)C3=O)ccnc2c(-n2cccc2)n1 [Example 35, 7-((1H-Imidazol-1-yl)methyl)-2-(6-ethyl-8-(1H-pyrrol-1-yl)-1,7-naphthyridin-4-yl)-5-(1-methyl-3-(trifluoromethyl)-1H-pyrazol-4-yl)-3,4-dihydroisoquinolin-1(2H)-one]	47	< 0.02
CCOc1nc(CC)cc2c(N3CCc4c(cc(Cn5ccnc5)cc4-c4cn(C)nc4C(F)(F)F)C3=O)ccnc12 [Example 36, 7-((1H-Imidazol-1-yl)methyl)-2-(8-ethoxy-6-ethyl-1,7-naphthyridin-4-yl)-5-(1-methyl-3-(trifluoromethyl)-1H-pyrazol-4-yl)-3,4-dihydroisoquinolin-1(2H)-one]	< 20	< 0.02
CCc1cc2c(N3CCc4c(cc(Cn5ccnc5)cc4-c4cn(C)nc4C(F)(F)F)C3=O)ccnc2c(CC)n1 [Example 37, 7-((1H-Imidazol-1-yl)methyl)-2-(6,8-diethyl-1,7-naphthyridin-4-yl)-5-(1-methyl-3-(trifluoromethyl)-1H-pyrazol-4-yl)-3,4-dihydroisoquinolin-1(2H)-one]	96	< 0.02
CCc1cc2c(N3CCc4c(cc(Cn5ccnc5)cc4-c4cn(C)nc4C(F)(F)F)C3=O)ccnc2c(OCC(F)F)n1 [Example 39, 7-((1H-Imidazol-1-yl)methyl)-2-(8-(2,2-difluoroethoxy)-6-ethyl-1,7-naphthyridin-4-yl)-5-(1-methyl-3-(trifluoromethyl)-1H-pyrazol-4-yl)-3,4-dihydroisoquinolin-1(2H)-one]	< 20	< 0.02
CCc1cc2c(N3CCc4c(cc(Cn5ccnc5)cc4-c4cn(C)nc4C(F)(F)F)C3=O)ncnc2cc1OC [Example 43, 7-((1H-Imidazol-1-yl)methyl)-2-(6-ethyl-7-methoxyquinazolin-4-yl)-5-(1-methyl-3-(trifluoromethyl)-1H-pyrazol-4-yl)-3,4-dihydroisoquinolin-1(2H)-one]	< 20	< 0.02
CCc1cc2c(N3CCc4c(cc(Cn5ccnc5)cc4-c4cn(C)nc4C(F)(F)F)C3=O)ccnc2c(N2CCOCC2)n1 [Example 44, 7-((1H-Imidazol-1-yl)methyl)-2-(6-ethyl-8-morpholino-1,7-naphthyridin-4-yl)-5-(1-methyl-3-(trifluoromethyl)-1H-pyrazol-4-yl)-3,4-dihydroisoquinolin-1(2H)-one]	< 20	< 0.02
CCc1cc2c(N3CCc4c(cc(Cn5ccnc5)cc4-c4cn(C)nc4C(F)(F)F)C3=O)ccnc2c(-c2ccncc2)n1 [Example 45, 7-((1H-Imidazol-1-yl)methyl)-2-(6-ethyl-8-(pyridin-4-yl)-1,7-naphthyridin-4-yl)-5-(1-methyl-3-(trifluoromethyl)-1H-pyrazol-4-yl)-3,4-dihydroisoquinolin-1(2H)-one]	21	< 0.02
CCc1cc2c(N3CCc4c(cc(Cn5ccnc5)cc4-c4cn(C)nc4C(F)(F)F)C3=O)ccnc2c(N2CCN(C)CC2)n1 [Example 46, 7-((1H-Imidazol-1-yl)methyl)-2-(6-ethyl-8-(4-methylpiperazin-1-yl)-1,7-naphthyridin-4-yl)-5-(1-methyl-3-(trifluoromethyl)-1H-pyrazol-4-yl)-3,4-dihydroisoquinolin-1(2H)-one]	< 20	< 0.02
CCc1cc2c(N3CCc4c(cc(Cn5ccnc5)cc4-n4nc(C)cc4C(F)(F)F)C3=O)ccnc2c(OC)n1 [Example 47, 7-((1H-Imidazol-1-yl)methyl)-2-(6-ethyl-8-methoxy-1,7-naphthyridin-4-yl)-5-(3-methyl-5-(trifluoromethyl)-1H-pyrazol-1-yl)-3,4-dihydroisoquinolin-1(2H)-one]	296	0.024
CCc1cc2c(N3CCc4c(cc(Cn5ccnc5)cc4-c4cn(C)nc4C(F)(F)F)C3=O)cc(C)nc2c(OC)n1 [Example 48, 7-((1H-Imidazol-1-yl)methyl)-2-(6-ethyl-8-methoxy-2-methyl-1,7-naphthyridin-4-yl)-5-(1-methyl-3-(trifluoromethyl)-1H-pyrazol-4-yl)-3,4-dihydroisoquinolin-1(2H)-one]	< 20	< 0.02
COc1cc2nncc(N3CCc4c(cc(Cn5ccnc5)cc4-c4cn(C)nc4C(F)(F)F)C3=O)c2cc1OC [Example 49, 7-((1H-Imidazol-1-yl)methyl)-2-(6,7-dimethoxycinnolin-4-yl)-5-(1-methyl-3-(trifluoromethyl)-1H-pyrazol-4-yl)-3,4-dihydroisoquinolin-1(2H)-one]	< 20	< 0.02
COc1cc(OC)c2ncnc(N3CCc4c(cc(Cn5ccnc5)cc4-c4cn(C)nc4C(F)(F)F)C3=O)c2c1 [Example 50, 7-((1H-Imidazol-1-yl)methyl)-2-(6,8-dimethoxyquinazolin-4-yl)-5-(1-methyl-3-(trifluoromethyl)-1H-pyrazol-4-yl)-3,4-dihydroisoquinolin-1(2H)-one]	< 20	0.022
CCc1cc(OC)c2nc(C)nc(N3CCc4c(cc(Cn5ccnc5)cc4-c4cn(C)nc4C(F)(F)F)C3=O)c2c1 [Example 51, 7-((1H-Imidazol-1-yl)methyl)-2-(6-ethyl-8-methoxy-2-methylquinazolin-4-yl)-5-(1-methyl-3-(trifluoromethyl)-1H-pyrazol-4-yl)-3,4-dihydroisoquinolin-1(2H)-one]	< 20	0.022
CCc1cc2c(N3CCc4c(cc(Cn5ccnc5)cc4-c4cn(C)nc4C(F)(F)F)C3=O)ccnc2c(COC)n1 [Example 52, 7-((1H-Imidazol-1-yl)methyl)-2-(6-ethyl-8-(methoxymethyl)-1,7-naphthyridin-4-yl)-5-(1-methyl-3-(trifluoromethyl)-1H-pyrazol-4-yl)-3,4-dihydroisoquinolin-1(2H)-one]	80	0.03
COc1cc2c(N3CCc4c(cc(Cn5ccnc5)cc4-c4cn(C)nc4C(F)(F)F)C3=O)nc(C)nc2cc1F [Example 53, 7-((1H-Imidazol-1-yl)methyl)-2-(7-fluoro-6-methoxy-2-methylquinazolin-4-yl)-5-(1-methyl-3-(trifluoromethyl)-1H-pyrazol-4-yl)-3,4-dihydroisoquinolin-1(2H)-one]	< 20	< 0.02
COc1cc2c(N3CCc4c(cc(Cn5ccnc5)cc4-c4cn(C)nc4C(F)(F)F)C3=O)nc(C)nc2cc1N1CCC1 [Example 54, 7-((1H-Imidazol-1-yl)methyl)-2-(7-(azetidin-1-yl)-6-methoxy-2-methylquinazolin-4-yl)-5-(1-methyl-3-(trifluoromethyl)-1H-pyrazol-4-yl)-3,4-dihydroisoquinolin-1(2H)-one]	81	< 0.02
CNc1cc2nc(C)nc(N3CCc4c(cc(Cn5ccnc5)cc4-c4cn(C)nc4C(F)(F)F)C3=O)c2cc1OC [Example 55, 7-((1H-Imidazol-1-yl)methyl)-2-(6-methoxy-2-methyl-7-(methylamino)quinazolin-4-yl)-5-(1-methyl-3-(trifluoromethyl)-1H-pyrazol-4-yl)-3,4-dihydroisoquinolin-1(2H)-one]	47	< 0.02
COc1cc2nc(N3CCOCC3)nc(N3CCc4c(cc(Cn5ccnc5)cc4-c4cn(C)nc4C(F)(F)F)C3=O)c2cc1OC [Example 56, 7-((1H-Imidazol-1-yl)methyl)-2-(6,7-dimethoxy-2-morpholinoquinazolin-4-yl)-5-(1-methyl-3-(trifluoromethyl)-1H-pyrazol-4-yl)-3,4-dihydroisoquinolin-1(2H)-one]	< 20	< 0.02
CNc1nc(N2CCc3c(cc(Cn4ccnc4)cc3-c3cn(C)nc3C(F)(F)F)C2=O)c2cc(OC)c(OC)cc2n1 [Example 57, 7-((1H-Imidazol-1-yl)methyl)-2-(6,7-dimethoxy-2-(methylamino)quinazolin-4-yl)-5-(1-methyl-3-(trifluoromethyl)-1H-pyrazol-4-yl)-3,4-dihydroisoquinolin-1(2H)-one]	24	0.023
CCn1nc(C)cc1-c1cc(Cn2ccnc2)cc2c1CCN(c1nc(C)nc3cc(OC)c(OC)cc13)C2=O [Example 58, 7-((1H-Imidazol-1-yl)methyl)-2-(6,7-dimethoxy-2-methylquinazolin-4-yl)-5-(1-ethyl-3-methyl-1H-pyrazol-5-yl)-3,4-dihydroisoquinolin-1(2H)-one]	195	0.03
COc1cc2nc(C)nc(N3CCc4c(cc(Cn5ccnc5)cc4-c4cc(C)nn4C)C3=O)c2cc1OC [Example 59, 7-((1H-Imidazol-1-yl)methyl)-2-(6,7-dimethoxy-2-methylquinazolin-4-yl)-5-(1,3-dimethyl-1H-pyrazol-5-yl)-3,4-dihydroisoquinolin-1(2H)-one]	90	< 0.02
